Results reported in patent publication US6896895B2, “Carotenoid esters, carotenoid-enriched feeds, and methods of pigmenting foods and foodstuffs” (DSM IP Assets B.V., priority 2000, dated 2005).

Experiments:
[1] = Carotenoid ester content in plasma, back skin and abdominal fat of broilers (HPLC); type: in vivo, broiler chickens (Ross 308, Ross 508); settings: average over doses, Table 4
Outline: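 Ross 308/508 broilers, raised on low-carotenoid basal diet (<2 mg xanthophylls/kg) to day 15 or 22, then fed pigment-supplemented diet for three weeks; plasma sampled day 42, back skin and abdominal fat pooled per group at slaughter on day 44. Carotenoid esters quantified by normal-phase HPLC (0.5% acetone in n-hexane) calibrated with all-E ethyl β-apo-8′-carotenoate; Z-isomers corrected by factor 1.4.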

[2] = test system: skin and shanks of broilers; assay: Reflectance colorimetry and visual classification of skin and shanks of broilers; type: in vivo, broiler chickens (Ross 308, Ross 508); set-up: key to Shanks Visual Classification / Skin Visual Classification: −; (+); +; ++ = good color; o = orange; settings: dry carcasses, average over doses, Table 6
Outline: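 Ross broilers were fed a low-carotenoid basal diet (<2 mg xanthophylls/kg), then received pigment-supplemented diet for three weeks and were slaughtered on day 44. Back-skin colour (mean of three points) and shank colour (single reading) were measured by Minolta chromameter (D65, 0°) and reported as CIE L*a*b*, h* and C*, averaged over ten birds (5 male, 5 female).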

[3] = Carotenoid ester content and deposition rate in egg yolk of laying hens (HPLC); type: in vivo, laying hens (ISA Brown); settings: egg yolk; for Deposition Rate Target Values % of Controls / Ethyl β-apo-8′-carotenoate Equivalents % of Controls: Table 8; for Deposition Rate % of Controls: Table 10
Outline: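 Hens were first depleted for at least 28 days on a low-carotenoid basal diet (<2 mg total xanthophylls/kg, also the control diet), then fed mash supplemented with the pigments ad libitum for three weeks. Pooled homogenised yolk was extracted with ethanol/n-hexane and analysed by HPLC, calibrated with all-E ethyl β-apo-8′-carotenoate. Response factors were adjusted by molecular weight, and Z-isomers were corrected by a factor of 1.4.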

egg yolk = assay: Egg yolk colour: reflectance colorimetry and Roche Yolk Colour Fan; type: in vivo, laying hens (ISA Brown); settings: egg yolk, laying hens, 5.0 mg/kg feed
Outline: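 ISA Brown laying hens, depleted at least 28 days on low-carotenoid basal diet (<2 mg xanthophylls/kg), fed pigment-supplemented mash ad libitum for three weeks. Pooled yolks of three to six eggs scored with Roche Yolk Colour Fan and measured by reflectance colorimetry (D65, 8°) as CIE L*a*b*, h*, C*; values average four yolk pools.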

Row | SMILES | Analytical Content as Equivalent of Ethyl β-apo-8′-carotenoate in % of control Plasma [1] [%] | Shanks Chroma C*ab % of Controls [2] [%] | Shanks Color Hue h*ab % of Controls [2] [%] | Shanks Visual Classification [2] | Skin Chroma C*ab % of Controls [2] [%] | Skin Color Hue h*ab % of Controls [2] [%] | Skin Visual Classification [2] | Deposition Rate Target Values % of Controls ([3]; trial H-18/99, 5.0 mg/kg feed) [%] | Ethyl β-apo-8′-carotenoate Equivalents % of Controls ([3]; trial H-18/99, 5.0 mg/kg feed) [%] | Deposition Rate % of Controls ([3]; trial H-18/99, 5.0 mg/kg feed) [%] | Color Fan Value % of Controls (egg yolk; trial H-18/99, Table 8) [%] | Chroma C*ab % of Controls (egg yolk; trial H-18/99, Table 10) [%] | Color Fan Value % of Controls (egg yolk; trial H-18/99, Table 10) [%] | Color Hue h*ab % of Controls (egg yolk; trial H-18/99, Table 10) [%] | Analytical Content as Equivalent of Ethyl β-apo-8′-carotenoate in % of control Fat [1] [%] | Analytical Content as Equivalent of Ethyl β-apo-8′-carotenoate in % of control Skin [1] [%] | further results
1 | CC(C=CC=C(C)C=CC1=C(C)CCCC1(C)C)=CC=CC=C(C)C=CC=C(C)C(=O)OCC(C)C [(4), isobutyl beta-apo-8′-carotenoate] | 58 | 72 | 105 | (+) | 84 | 98 | (+) | 83 | 74 | 83 | 116 | 104 | 116 | 101 | – | – | –
2 | CCCC(C)COC(=O)C(C)=CC=CC(C)=CC=CC=C(C)C=CC=C(C)C=CC1=C(C)CCCC1(C)C (stereo not drawn) [(11), 2-methyl-1-pentyl beta-apo-8′-carotenoate] | 59 | 92 | 101 | (+) | 87 | 95 | + | – | – | – | – | – | – | – | 50 | 69 | Deposition Rate Target Values % of Controls ([3]; trial H-25/99, 5.0 mg/kg feed): 112%; Ethyl β-apo-8′-carotenoate Equivalents % of Controls ([3]; trial H-25/99, 5.0 mg/kg feed): 96%; Deposition Rate % of Controls ([3]; trial H-25/99, 5.0 mg/kg feed): 112%; Color Fan Value % of Controls (egg yolk; trial H-25/99, Table 8): 116%; Chroma C*ab % of Controls (egg yolk; trial H-25/99, Table 10): 101%; Color Fan Value % of Controls (egg yolk; trial H-25/99, Table 10): 116%; Color Hue h*ab % of Controls (egg yolk; trial H-25/99, Table 10): 103%
3 | CC(C=CC=C(C)C=CC1=C(C)CCCC1(C)C)=CC=CC=C(C)C=CC=C(C)C(=O)OCCC(C)C [(6), isoamyl beta-apo-8′-carotenoate] | 62 | 86 | 101 | (+) | 89 | 99 | (+) | 90 | 80 | 90 | 116 | 105 | 116 | 101 | 35 | 38 | –
